# Literature values as cited in PMC9851200, “Multiparameter phenotypic screening for endogenous TFEB and TFE3 translocation identifies novel chemical series modulating lysosome function” (Autophagy, 2022).
# Experiments:
# Set-up in all cases: method as in original PKIS2 published data
# [1] = target: kinases (KINOMEscan panel) (Homo sapiens, UniProt Q13557); settings: kinase CAMK2D; Published KINOMEscan; ref original PKIS2 published data; cited from earlier work
# [2] = target: kinases (KINOMEscan panel) (Homo sapiens, UniProt Q8IU85); settings: kinase CAMK1D; Published KINOMEscan; ref original PKIS2 published data; cited from earlier work
# [3] = target: kinases (KINOMEscan panel) (Homo sapiens, UniProt O75116); settings: kinase ROCK2; Published KINOMEscan; ref original PKIS2 published data; cited from earlier work
# [4] = target: kinases (KINOMEscan panel) (Homo sapiens, UniProt P42685); settings: kinase FRK; Published KINOMEscan; ref original PKIS2 published data; cited from earlier work
# [5] = target: kinases (KINOMEscan panel) (Homo sapiens, UniProt Q9Y3S1); settings: WNK2; Published KINOMEscan; ref original PKIS2 published data; cited from earlier work
# [6] = target: kinases (KINOMEscan panel) (Homo sapiens, UniProt Q5VT25); settings: cited from earlier work
# [7] = target: T1, kinases (KINOMEscan panel) (Homo sapiens, UniProt P54762); settings: kinase EPHB1; Published KINOMEscan; ref original PKIS2 published data; cited from earlier work
# T1 sequence (P54762 18-984): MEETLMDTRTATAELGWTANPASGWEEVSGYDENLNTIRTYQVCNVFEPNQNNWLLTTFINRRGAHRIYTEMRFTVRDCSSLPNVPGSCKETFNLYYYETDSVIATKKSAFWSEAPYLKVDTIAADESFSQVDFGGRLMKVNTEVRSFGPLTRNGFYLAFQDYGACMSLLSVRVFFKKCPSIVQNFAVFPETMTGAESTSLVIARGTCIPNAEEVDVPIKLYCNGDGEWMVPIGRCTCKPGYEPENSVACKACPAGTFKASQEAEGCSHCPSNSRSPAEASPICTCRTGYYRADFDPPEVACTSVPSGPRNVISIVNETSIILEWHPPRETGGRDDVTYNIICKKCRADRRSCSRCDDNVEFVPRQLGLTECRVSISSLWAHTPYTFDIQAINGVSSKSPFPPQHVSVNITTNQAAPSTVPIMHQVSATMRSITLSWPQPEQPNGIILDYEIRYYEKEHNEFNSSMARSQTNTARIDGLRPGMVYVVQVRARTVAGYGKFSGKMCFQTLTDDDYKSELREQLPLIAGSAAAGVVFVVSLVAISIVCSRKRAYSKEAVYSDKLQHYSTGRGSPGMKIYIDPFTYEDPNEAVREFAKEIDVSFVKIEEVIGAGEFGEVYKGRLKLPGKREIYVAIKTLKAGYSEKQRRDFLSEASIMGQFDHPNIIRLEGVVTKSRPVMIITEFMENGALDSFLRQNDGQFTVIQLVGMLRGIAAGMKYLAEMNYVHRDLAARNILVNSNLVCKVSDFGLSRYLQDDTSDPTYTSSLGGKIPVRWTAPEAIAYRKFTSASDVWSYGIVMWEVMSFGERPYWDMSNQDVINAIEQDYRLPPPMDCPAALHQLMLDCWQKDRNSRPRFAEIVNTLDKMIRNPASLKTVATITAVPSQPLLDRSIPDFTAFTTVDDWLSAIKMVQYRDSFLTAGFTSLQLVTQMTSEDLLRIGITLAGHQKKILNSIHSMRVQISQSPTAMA
# [8] = target: T2, kinases (KINOMEscan panel) (Homo sapiens, UniProt P52333); settings: kinase JAK3(JH1domain-catalytic); Published KINOMEscan; ref original PKIS2 published data; cited from earlier work
# T2 sequence (P52333 1-1124): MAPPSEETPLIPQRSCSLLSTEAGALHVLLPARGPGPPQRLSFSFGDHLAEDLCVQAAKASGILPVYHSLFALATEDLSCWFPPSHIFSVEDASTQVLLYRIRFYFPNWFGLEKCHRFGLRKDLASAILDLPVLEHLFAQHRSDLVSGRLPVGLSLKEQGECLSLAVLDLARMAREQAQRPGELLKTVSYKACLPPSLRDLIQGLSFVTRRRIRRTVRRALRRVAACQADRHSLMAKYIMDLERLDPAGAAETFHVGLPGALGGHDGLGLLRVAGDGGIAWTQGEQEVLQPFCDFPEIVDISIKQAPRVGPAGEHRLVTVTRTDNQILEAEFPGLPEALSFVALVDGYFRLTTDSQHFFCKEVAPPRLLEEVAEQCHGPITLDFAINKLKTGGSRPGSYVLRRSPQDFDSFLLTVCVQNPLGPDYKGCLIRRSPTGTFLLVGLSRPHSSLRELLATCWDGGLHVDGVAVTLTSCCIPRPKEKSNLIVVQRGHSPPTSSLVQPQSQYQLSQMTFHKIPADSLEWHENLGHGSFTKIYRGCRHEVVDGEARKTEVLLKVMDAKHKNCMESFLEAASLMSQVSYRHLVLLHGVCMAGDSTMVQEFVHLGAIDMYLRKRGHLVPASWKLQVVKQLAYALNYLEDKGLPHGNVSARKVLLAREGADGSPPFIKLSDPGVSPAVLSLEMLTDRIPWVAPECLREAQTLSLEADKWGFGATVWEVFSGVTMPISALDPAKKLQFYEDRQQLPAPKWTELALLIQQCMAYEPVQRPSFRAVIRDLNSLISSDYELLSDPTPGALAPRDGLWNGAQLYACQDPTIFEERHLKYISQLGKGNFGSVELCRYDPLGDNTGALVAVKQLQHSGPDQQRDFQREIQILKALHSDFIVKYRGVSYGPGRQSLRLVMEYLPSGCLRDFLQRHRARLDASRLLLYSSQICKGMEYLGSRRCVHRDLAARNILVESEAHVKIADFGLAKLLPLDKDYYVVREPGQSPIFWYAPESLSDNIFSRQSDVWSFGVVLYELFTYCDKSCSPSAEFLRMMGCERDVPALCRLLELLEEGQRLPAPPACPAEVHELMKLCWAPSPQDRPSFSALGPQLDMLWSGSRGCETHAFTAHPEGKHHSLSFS
# Chain of kinases (KINOMEscan panel) (Homo sapiens, UniProt Q13557) (Q13557 whole entry): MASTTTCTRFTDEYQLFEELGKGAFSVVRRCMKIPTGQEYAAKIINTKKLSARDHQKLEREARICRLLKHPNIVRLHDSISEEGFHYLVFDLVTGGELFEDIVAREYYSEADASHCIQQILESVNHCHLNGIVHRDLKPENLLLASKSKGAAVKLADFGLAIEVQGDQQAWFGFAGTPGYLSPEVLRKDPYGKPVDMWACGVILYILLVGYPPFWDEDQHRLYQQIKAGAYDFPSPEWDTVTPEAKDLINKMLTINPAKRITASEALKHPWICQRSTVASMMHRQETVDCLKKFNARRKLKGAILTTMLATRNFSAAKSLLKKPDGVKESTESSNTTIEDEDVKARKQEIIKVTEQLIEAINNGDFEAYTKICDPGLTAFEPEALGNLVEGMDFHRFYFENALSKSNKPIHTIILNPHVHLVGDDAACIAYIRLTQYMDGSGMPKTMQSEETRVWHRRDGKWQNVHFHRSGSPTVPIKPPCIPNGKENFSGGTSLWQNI
# Chain of kinases (KINOMEscan panel) (Homo sapiens, UniProt Q8IU85) (Q8IU85 whole entry): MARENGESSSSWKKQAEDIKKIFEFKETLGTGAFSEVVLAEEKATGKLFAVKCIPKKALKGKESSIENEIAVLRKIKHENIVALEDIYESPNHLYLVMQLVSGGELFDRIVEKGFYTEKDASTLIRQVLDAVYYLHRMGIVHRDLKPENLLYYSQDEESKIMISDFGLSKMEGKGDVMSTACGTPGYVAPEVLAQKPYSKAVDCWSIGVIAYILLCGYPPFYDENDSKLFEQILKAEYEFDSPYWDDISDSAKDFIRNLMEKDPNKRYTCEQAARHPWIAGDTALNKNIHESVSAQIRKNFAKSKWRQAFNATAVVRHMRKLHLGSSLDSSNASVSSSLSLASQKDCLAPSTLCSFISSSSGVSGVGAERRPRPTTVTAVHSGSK
# Chain of kinases (KINOMEscan panel) (Homo sapiens, UniProt O75116) (O75116 whole entry): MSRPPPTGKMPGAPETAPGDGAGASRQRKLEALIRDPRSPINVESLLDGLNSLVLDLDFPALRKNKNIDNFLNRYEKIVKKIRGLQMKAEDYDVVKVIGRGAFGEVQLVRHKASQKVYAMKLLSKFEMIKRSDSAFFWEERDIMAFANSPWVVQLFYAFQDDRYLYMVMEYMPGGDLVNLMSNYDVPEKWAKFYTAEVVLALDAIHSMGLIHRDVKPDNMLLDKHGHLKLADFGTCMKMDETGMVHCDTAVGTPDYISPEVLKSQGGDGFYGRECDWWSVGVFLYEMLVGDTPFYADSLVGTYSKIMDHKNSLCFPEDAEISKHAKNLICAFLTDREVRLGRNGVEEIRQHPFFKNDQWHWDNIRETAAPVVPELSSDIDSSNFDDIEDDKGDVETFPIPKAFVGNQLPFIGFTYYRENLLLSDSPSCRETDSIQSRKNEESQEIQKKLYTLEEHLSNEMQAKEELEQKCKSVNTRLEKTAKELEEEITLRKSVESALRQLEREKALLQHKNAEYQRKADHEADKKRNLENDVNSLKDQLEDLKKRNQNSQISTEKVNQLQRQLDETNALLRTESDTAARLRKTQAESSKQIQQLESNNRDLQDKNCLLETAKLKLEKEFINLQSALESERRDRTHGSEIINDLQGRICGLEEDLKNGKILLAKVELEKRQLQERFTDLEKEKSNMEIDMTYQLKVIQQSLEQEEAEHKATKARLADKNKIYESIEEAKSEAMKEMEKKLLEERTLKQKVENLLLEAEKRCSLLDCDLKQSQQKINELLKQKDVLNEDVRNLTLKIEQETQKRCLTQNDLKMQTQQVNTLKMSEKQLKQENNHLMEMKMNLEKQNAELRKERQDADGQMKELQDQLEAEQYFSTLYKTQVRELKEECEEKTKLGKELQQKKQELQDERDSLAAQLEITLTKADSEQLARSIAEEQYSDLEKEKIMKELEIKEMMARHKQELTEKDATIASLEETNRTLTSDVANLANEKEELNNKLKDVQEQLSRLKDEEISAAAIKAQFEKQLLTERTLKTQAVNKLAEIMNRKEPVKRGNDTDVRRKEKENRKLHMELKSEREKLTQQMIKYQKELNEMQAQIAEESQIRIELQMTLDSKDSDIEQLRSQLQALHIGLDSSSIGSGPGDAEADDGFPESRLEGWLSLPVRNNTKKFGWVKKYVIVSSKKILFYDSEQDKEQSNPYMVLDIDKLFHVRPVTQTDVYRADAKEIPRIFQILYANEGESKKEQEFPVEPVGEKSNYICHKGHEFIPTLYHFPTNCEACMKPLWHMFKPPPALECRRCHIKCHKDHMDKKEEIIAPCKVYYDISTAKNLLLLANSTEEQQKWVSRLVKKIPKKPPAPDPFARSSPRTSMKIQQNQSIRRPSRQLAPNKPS
# Chain of kinases (KINOMEscan panel) (Homo sapiens, UniProt P42685) (P42685 whole entry): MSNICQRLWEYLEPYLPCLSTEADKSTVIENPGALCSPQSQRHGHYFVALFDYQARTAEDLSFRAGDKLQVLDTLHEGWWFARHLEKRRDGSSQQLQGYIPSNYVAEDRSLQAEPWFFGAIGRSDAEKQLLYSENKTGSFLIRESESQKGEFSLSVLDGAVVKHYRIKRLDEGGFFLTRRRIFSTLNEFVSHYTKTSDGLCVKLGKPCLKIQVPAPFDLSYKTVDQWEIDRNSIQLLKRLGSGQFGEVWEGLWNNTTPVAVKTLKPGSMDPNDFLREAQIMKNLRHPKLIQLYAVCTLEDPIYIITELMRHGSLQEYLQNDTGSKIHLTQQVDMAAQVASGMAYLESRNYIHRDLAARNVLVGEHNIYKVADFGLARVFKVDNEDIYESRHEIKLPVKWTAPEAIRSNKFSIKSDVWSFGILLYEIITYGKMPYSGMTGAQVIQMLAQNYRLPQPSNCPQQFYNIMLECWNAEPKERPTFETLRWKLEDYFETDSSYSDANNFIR
# Chain of kinases (KINOMEscan panel) (Homo sapiens, UniProt Q5VT25) (Q5VT25 whole entry): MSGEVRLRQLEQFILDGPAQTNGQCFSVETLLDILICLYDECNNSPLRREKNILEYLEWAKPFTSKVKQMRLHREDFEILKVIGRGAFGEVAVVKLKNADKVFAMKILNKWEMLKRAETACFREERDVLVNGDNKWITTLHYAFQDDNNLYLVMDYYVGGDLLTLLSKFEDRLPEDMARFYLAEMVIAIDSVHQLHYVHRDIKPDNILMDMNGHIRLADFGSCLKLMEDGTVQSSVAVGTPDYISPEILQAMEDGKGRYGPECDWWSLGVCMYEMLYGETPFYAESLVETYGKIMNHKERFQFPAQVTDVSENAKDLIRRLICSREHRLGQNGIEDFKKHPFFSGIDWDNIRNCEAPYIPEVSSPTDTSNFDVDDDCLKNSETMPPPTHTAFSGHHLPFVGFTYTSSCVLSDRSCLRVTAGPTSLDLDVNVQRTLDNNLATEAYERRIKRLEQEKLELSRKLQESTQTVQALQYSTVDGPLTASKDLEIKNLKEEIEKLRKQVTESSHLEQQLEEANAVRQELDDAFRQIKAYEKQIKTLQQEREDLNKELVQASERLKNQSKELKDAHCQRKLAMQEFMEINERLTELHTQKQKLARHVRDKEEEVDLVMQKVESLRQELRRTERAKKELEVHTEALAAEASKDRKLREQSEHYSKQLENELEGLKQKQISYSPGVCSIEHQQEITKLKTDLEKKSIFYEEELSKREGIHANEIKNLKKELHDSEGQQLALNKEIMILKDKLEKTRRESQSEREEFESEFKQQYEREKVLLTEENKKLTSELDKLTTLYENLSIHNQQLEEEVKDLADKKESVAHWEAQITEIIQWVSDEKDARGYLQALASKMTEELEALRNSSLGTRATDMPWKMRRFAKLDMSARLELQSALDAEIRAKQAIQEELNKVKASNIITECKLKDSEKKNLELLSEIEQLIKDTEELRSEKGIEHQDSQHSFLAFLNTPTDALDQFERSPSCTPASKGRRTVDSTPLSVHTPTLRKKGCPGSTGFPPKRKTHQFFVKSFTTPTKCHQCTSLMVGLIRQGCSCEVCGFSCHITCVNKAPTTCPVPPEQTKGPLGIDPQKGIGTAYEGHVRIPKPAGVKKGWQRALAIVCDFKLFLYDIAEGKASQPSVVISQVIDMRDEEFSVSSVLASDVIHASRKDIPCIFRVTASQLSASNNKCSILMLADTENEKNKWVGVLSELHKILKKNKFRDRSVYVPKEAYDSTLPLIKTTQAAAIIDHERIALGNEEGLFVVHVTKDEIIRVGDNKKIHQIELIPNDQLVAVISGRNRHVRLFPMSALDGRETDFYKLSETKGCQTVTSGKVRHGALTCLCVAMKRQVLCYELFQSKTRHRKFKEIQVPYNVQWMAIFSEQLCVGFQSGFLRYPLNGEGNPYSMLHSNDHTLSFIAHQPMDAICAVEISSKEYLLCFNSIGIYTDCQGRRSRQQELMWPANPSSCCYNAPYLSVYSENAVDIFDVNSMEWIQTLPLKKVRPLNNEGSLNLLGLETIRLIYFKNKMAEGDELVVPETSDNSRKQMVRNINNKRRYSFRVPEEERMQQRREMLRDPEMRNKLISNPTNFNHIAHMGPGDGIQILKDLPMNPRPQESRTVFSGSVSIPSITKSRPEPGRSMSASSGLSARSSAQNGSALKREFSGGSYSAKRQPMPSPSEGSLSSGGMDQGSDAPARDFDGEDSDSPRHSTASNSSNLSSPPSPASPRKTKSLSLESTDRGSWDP
compound,measurement,setting,value
Cc1cccc(-c2nc(Nc3ccncc3)c3ccccc3n2)n1 [NK215],KINOMEscan CAMK2D,[1],7
same,KINOMEscan CAMK1D,[2],3
same,KINOMEscan ROCK2,[3],0
same,KINOMEscan FRK,[4],15
same,KINOMEscan WNK2,[5],0
same,KINOMEscan CDC42BPA/MRCKA,[6],47
same,KINOMEscan EPHB1,[7],3
same,KINOMEscan JAK3(JH1domain-catalytic),[8],0
